Experimental data: ChEMBL document CHEMBL4130364, “4-Aminoquinoline-chalcone/-N-acetylpyrazoline conjugates: Synthesis and antiplasmodial evaluation” (Eur J Med Chem, 2017)
pIC50: −log10 of the molar value.

What was measured:
Plasmodium falciparum = assay: Antiplasmodial activity against chloroquine-resistant Plasmodium falciparum W2 after 48 hrs by YOYO-1 dye-based flow cytometry; format: functional, organism-based; details: W2, 48 h
[1] = Selectivity index, ratio of IC50 for human HeLa cells to IC50 for chloroquine-resistant Plasmodium falciparum W2; format: toxicity; details: read-out: Ratio IC50
HeLa = assay: Cytotoxicity against human HeLa cells assessed as reduction in cell viability after 24 hrs by trypan blue-based hemacytometer counting analysis

SMILES	pIC50 (Plasmodium falciparum)	selectivity ratio [1]	pIC50 (HeLa)
COc1ccc(/C=C/C(=O)c2ccc(OCc3cn(CCNc4ccnc5cc(Cl)ccc45)nn3)c(OC)c2)cc1	5.72		
COc1ccc(C2CC(c3ccc(OCc4cn(CCCNc5ccnc6cc(Cl)ccc56)nn4)cc3)=NN2C(C)=O)cc1 (stereo unspecified)	6.30		
O=C(/C=C/c1ccccc1)c1ccc(OCc2cn(CCCNc3ccnc4cc(Cl)ccc34)nn2)cc1	< 5.00		
COc1ccc(/C=C/C(=O)c2ccc(OCc3cn(CCCNc4ccnc5cc(Cl)ccc45)nn3)c(OC)c2)cc1	< 5.00		
COc1ccc(/C=C/C(=O)c2ccc(OCc3cn(CCNc4ccnc5cc(Cl)ccc45)nn3)cc2)cc1	6.94	311	4.45
CC(=O)N1N=C(c2ccc(OCc3cn(CCNc4ccnc5cc(Cl)ccc45)nn3)cc2)CC1c1ccccc1 (stereo unspecified)	6.62		
COc1ccc(/C=C/C(=O)c2ccc(OCc3cn(CCCNc4ccnc5cc(Cl)ccc45)nn3)cc2)cc1	< 5.00		
COc1cccc2c1C(=O)c1c(O)c3c(c(O)c1C2=O)C[C@@](O)(C(=O)CO)C[C@@H]3O[C@H]1C[C@H](N)[C@H](O)[C@H](C)O1 [DOXORUBICIN]			5.08
COc1ccc(/C=C/C(=O)c2ccc(OCc3cn(CCCNc4ccnc5cc(Cl)ccc45)nn3)cc2)cc1OC	< 5.00		
COc1ccc(/C=C/C(=O)c2ccc(OCc3cn(CCNc4ccnc5cc(Cl)ccc45)nn3)cc2)cc1OC	6.85	90	4.90
COc1cc(C(=O)/C=C/c2cc(OC)c(OC)c(OC)c2)ccc1OCc1cn(CCCNc2ccnc3cc(Cl)ccc23)nn1	6.08		
COc1ccc(C2CC(c3ccc(OCc4cn(CCNc5ccnc6cc(Cl)ccc56)nn4)cc3)=NN2C(C)=O)cc1 (stereo unspecified)	6.88	223	4.53
C[C@@H]1CC[C@H]2[C@@H](C)C(=O)O[C@@H]3O[C@@]4(C)CC[C@@H]1[C@]32OO4 [ARTEMISININ]	7.49		
O=C(/C=C/c1ccccc1)c1ccc(OCc2cn(CCNc3ccnc4cc(Cl)ccc34)nn2)cc1	6.76		
COc1ccc(C2CC(c3ccc(OCc4cn(CCNc5ccnc6cc(Cl)ccc56)nn4)cc3)=NN2C(C)=O)cc1OC (stereo unspecified)	6.82		
COc1cc(C2=NN(C(C)=O)C(c3ccccc3)C2)ccc1OCc1cn(CCCNc2ccnc3cc(Cl)ccc23)nn1 (stereo unspecified)	7.11	598	4.34
COc1cc(/C=C/C(=O)c2ccc(OCc3cn(CCCNc4ccnc5cc(Cl)ccc45)nn3)cc2)cc(OC)c1OC	5.28		

SMILES	pIC50 (Plasmodium falciparum)	selectivity ratio [1]	pIC50 (HeLa)
COc1ccc(C2CC(c3ccc(OCc4cn(CCCNc5ccnc6cc(Cl)ccc56)nn4)cc3)=NN2C(C)=O)cc1OC (stereo unspecified)	6.30		
COc1ccc(C2CC(c3ccc(OCc4cn(CCNc5ccnc6cc(Cl)ccc56)nn4)c(OC)c3)=NN2C(C)=O)cc1OC (stereo unspecified)	7.27	795	4.37
CC(=O)N1N=C(c2ccc(OCc3cn(CCCNc4ccnc5cc(Cl)ccc45)nn3)cc2)CC1c1ccccc1 (stereo unspecified)	5.52		
COc1cc(C2=NN(C(C)=O)C(c3cc(OC)c(OC)c(OC)c3)C2)ccc1OCc1cn(CCCNc2ccnc3cc(Cl)ccc23)nn1 (stereo unspecified)	5.76		
COc1ccc(/C=C/C(=O)c2ccc(OCc3cn(CCCNc4ccnc5cc(Cl)ccc45)nn3)c(OC)c2)cc1OC	6.47		
COc1ccc(/C=C/C(=O)c2ccc(OCc3cn(CCNc4ccnc5cc(Cl)ccc45)nn3)c(OC)c2)cc1OC	6.08		
COc1cc(/C=C/C(=O)c2ccc(OCc3cn(CCNc4ccnc5cc(Cl)ccc45)nn3)cc2)cc(OC)c1OC	6.76		
COc1cc(C2=NN(C(C)=O)C(c3cc(OC)c(OC)c(OC)c3)C2)ccc1OCc1cn(CCNc2ccnc3cc(Cl)ccc23)nn1 (stereo unspecified)	6.86		
COc1ccc(C2CC(c3ccc(OCc4cn(CCCNc5ccnc6cc(Cl)ccc56)nn4)c(OC)c3)=NN2C(C)=O)cc1OC (stereo unspecified)	5.77		
COc1cc(C2CC(c3ccc(OCc4cn(CCNc5ccnc6cc(Cl)ccc56)nn4)cc3)=NN2C(C)=O)cc(OC)c1OC (stereo unspecified)	6.37		
COc1cc(C(=O)/C=C/c2cc(OC)c(OC)c(OC)c2)ccc1OCc1cn(CCNc2ccnc3cc(Cl)ccc23)nn1	6.45		
COc1cc(C2=NN(C(C)=O)C(c3ccccc3)C2)ccc1OCc1cn(CCNc2ccnc3cc(Cl)ccc23)nn1 (stereo unspecified)	6.54		
COc1ccc(C2CC(c3ccc(OCc4cn(CCNc5ccnc6cc(Cl)ccc56)nn4)c(OC)c3)=NN2C(C)=O)cc1 (stereo unspecified)	7.23	558	4.48
COc1ccc(C2CC(c3ccc(OCc4cn(CCCNc5ccnc6cc(Cl)ccc56)nn4)c(OC)c3)=NN2C(C)=O)cc1 (stereo unspecified)	5.80		
COc1cc(C2CC(c3ccc(OCc4cn(CCCNc5ccnc6cc(Cl)ccc56)nn4)cc3)=NN2C(C)=O)cc(OC)c1OC (stereo unspecified)	5.62		
COc1cc(C(=O)/C=C/c2ccccc2)ccc1OCc1cn(CCNc2ccnc3cc(Cl)ccc23)nn1	6.45		
COc1cc(C(=O)/C=C/c2ccccc2)ccc1OCc1cn(CCCNc2ccnc3cc(Cl)ccc23)nn1	5.16		
